In brackets after ≈: the same amount, converted by molar mass. Several values for one entry are separate records, joined by “and”; a condition that tells them apart may be missing. Identical values can stand only once.
Columns and labels:
Assay type in all cases: cell-based
[1] = tested on: Aspergillus fumigatus AUMC 8794; assay: disk diffusion assay, inhibition zone; settings: A. fumigatus; 4 mg/disk; soluble water compound 4
Experimental: (§1) To evaluate antimicrobial activity of the compound 4, synthesized in our laboratory as novel anti-bacterial and anti-fungal agents, the inhibition zone diameter (mm) and the minimal inhibitory concentration were determined according to (Andrews 2001; Hudzicki 2009). The test carried out on several clinical microorganisms included Gram positive bacteria (Staphylococcus aureus ATCC and Streptococcus mutans ATCC 35668), Gram negative bacteria (Escherichia coli ATCC 25922, Salmonella typhimurium ATCC 14028 and Neisseria meningitides ATCC 1302); yeasts (Candid albicans ATCC 60193, Cryptococcus neoformans Wild strain and Candida parapsilosus ATCC 22019) and molds (Aspergillus fumigatus AUMC 8794, Penicillum chrysogenum AUMC 9476 and Fusarium sp.)
(§2) The clinical microorganisms were cultivated at least three times on suitable culture medium and incubating conditions before susceptibility test. The concentration of microbial inoculation suspensions in sterile sodium chloride solution (0.89%) were adjusted to 0.65 at 620 nm by spectrophotometer. […]
(§3) After that, the disks were dried at 25° C. under sterile conditions by safety biological cabinet. A Mueller-Hinton agar (MHA) (Scharlau Microbiogy, Spain) and a potato dextrose agar (PDA) (Scharlau, Spain) were used to perform antibacterial and antifungal test respectively. The media were prepared according to manufacturer's guidelines. To prepare one liter of MHA and one liter of PDA, 21 grams of MHA and 39 grams of PDA were dissolved in one liter of sterile distilled water, followed by sterilization at 121° C. for 15 minutes by an autoclave (HL-321, Taiwan). The sterilized media were poured in sterile plastic Petri dishes at 50° C. The plates were allowed to let the medium solidify at room temperature. 0.1 ml of microbial inoculation suspensions were spread on dried surface of medium and were kept at 25° C. for 5-10 minutes. The compound 4 and standard antimicrobial drugs discs (Table 1) were dispensed on the surface of inoculated media. The tested bacteria and fungi were incubated at 37±1° C. for 19-22 hours and at 25±1 for 48-72 hours respectively. After the incubation, the diameter of inhibition zone (millimeter) resulting from the biological activity of compound were recorded.

[2] = tested on: Candid albicans ATCC 60193; assay: disk diffusion assay, inhibition zone; settings: C. albicans; 4 mg/disk; soluble water compound 4
Experimental: as §1, §2, §3

[3] = tested on: Candida parapsilosus ATCC 22019; assay: disk diffusion assay, inhibition zone; settings: C. parasilosus; 4 mg/disk; soluble water compound 4
Experimental: as §1, §2, §3

[4] = tested on: Cryptococcus neoformans Wild strain; assay: disk diffusion assay, inhibition zone; settings: C. neoformasn; 4 mg/disk; soluble water compound 4
Experimental: as §1, §2, §3

[5] = tested on: Escherichia coli ATCC 25922; assay: disk diffusion assay, inhibition zone; settings: E. coli; 4 mg/disk; soluble water compound 4
Experimental: as §1, §2, §3

Fusarium sp. [6] = assay: disk diffusion assay, inhibition zone; settings: Fusarium sp.; 4 mg/disk; soluble water compound 4
Experimental: as §1, §2, §3

[7] = tested on: Penicillum chrysogenum AUMC 9476; assay: disk diffusion assay, inhibition zone; settings: P. chrysoginum; 4 mg/disk; soluble water compound 4
Experimental: as §1, §2, §3

[8] = tested on: Salmonella typhimurium ATCC 14028; assay: disk diffusion assay, inhibition zone; settings: Sa. typhimurium; 4 mg/disk; soluble water compound 4
Experimental: as §1, §2, §3

[9] = tested on: Staphylococcus aureus ATCC; assay: disk diffusion assay, inhibition zone; settings: S. aureus; 4 mg/disk; soluble water compound 4
Experimental: as §1, §2, §3

[10] = tested on: Streptococcus mutans ATCC 35668; assay: disk diffusion assay, inhibition zone; settings: S. mutans
Experimental: as §1, §2, §3

[11] = tested on: Aspergillus fumigatus AUMC 8794; assay: microdilution assay, minimal inhibitory concentration; settings: AUMC8794, A. fumigatus, water-soluble form
Experimental: as §1
(§4) The minimal inhibitory concentration (MIC) of compound 4 (water-soluble form) was determined by a microdilution assay, using Mueller-Hinton broth (for bacteria) and Potato dextrose broth (for fungi). The compound 4 was dissolved in sterile culture broth (2 mg/mL). Two fold serial dilutions were carried out to obtain concentrations ranging from 2 to 0.008 mg/mL. 95 μL of each dilution were added in 96-well plates, then each well was inoculated with 5 μL of inoculation microbial suspension (5×10^8 colony form unit (CFU)/ml). The plates were incubated at suitable conditions according to tested microorganism. After the incubation, the microbial growth was detected in the wells by p-iodonitrotetrazolium violet (Sigma, USA) reagent. Each well received 20 μL of the reagent (0.5 mg/ml) and was then incubated at 37±1° C. for 30 min. A violet color indicated microbial growth in the well. The minimal inhibitory concentration (mg/ml) of the compound 4 was estimated as the lowest concentration that inhibited microbial growth.

[12] = tested on: Candid albicans ATCC 60193; assay: as above; settings: Candida albicans, ATCC60193; C. albicans; water-soluble form
Experimental: as §1, §4

[13] = tested on: Candida parapsilosus ATCC 22019; assay: as above; settings: ATCC22019, C. parasilosus, water-soluble form
Experimental: as §1, §4

[14] = tested on: Cryptococcus neoformans Wild strain; assay: as above; settings: C. neoformasn, water-soluble form
Experimental: as §1, §4

[15] = tested on: Escherichia coli ATCC 25922; assay: as above; settings: ATCC25922, E. coli, water-soluble form
Experimental: as §1, §4

Fusarium sp. [16] = assay: as above; settings: water-soluble form
Experimental: as §1, §4

[17] = tested on: Neisseria meningitides ATCC 1302; assay: as above; settings: ATCC1302, N. meningitides, water-soluble form
Experimental: as §1, §4

[18] = tested on: Penicillum chrysogenum AUMC 9476; assay: as above; settings: P. chrysoginum; water-soluble form
Experimental: as §1, §4

[19] = tested on: Salmonella typhimurium ATCC 14028; assay: as above; settings: Salmonella enterica; Sa. typhimurium; water-soluble form
Experimental: as §1, §4

[20] = tested on: Staphylococcus aureus ATCC; assay: as above; settings: S. aureus, water-soluble form
Experimental: as §1, §4

[21] = tested on: Streptococcus mutans ATCC 35668; assay: as above; settings: ATCC35668, S. mutans, water-soluble form
Experimental: as §1, §4

CCOC(=O)CSC(=S)SCC(=O)OCC [Compound 4, diethyl 2,2′-(thiocarbonylbis(sulfanediyl))diacetate]
Inhibition zone diameter [1]: 34.6 ± 0.5 A mm
Inhibition zone diameter [2]: 20 ± 1 D mm
Inhibition zone diameter [3]: 13 ± 1 E mm
Inhibition zone diameter [4]: 30 mm and 30 ± 1 B mm
Inhibition zone diameter [5]: 11.6 ± 0.5 E mm
Inhibition zone diameter (Fusarium sp. [6]): 30 ± 1 B mm
Inhibition zone diameter [7]: 30.3 ± .5 B mm
Inhibition zone diameter [8]: 8.6 ± 0.5 F mm
Inhibition zone diameter [9]: 10.6 ± 0.5 F* mm
biological activity, in words [10]: very good
Inhibition zone diameter ([10]; 4 mg/disk, soluble water compound 4): 20 ± 1 D mm
MIC [11]: 31.2 µg/mL (≈ 111 µM)
MIC [12]: 62.5 µg/mL (≈ 221 µM)
MIC [13]: 50 µg/mL (≈ 177 µM)
MIC [14]: 31.2 µg/mL (≈ 111 µM)
MIC [15]: 1000 µg/mL (≈ 3540 µM)
MIC (Fusarium sp. [16]): 31.2 µg/mL (≈ 111 µM)
MIC [17]: 62.5 µg/mL (≈ 221 µM)
MIC [18]: 31.2 µg/mL (≈ 111 µM)
MIC [19]: 2000 µg/mL (≈ 7080 µM)
MIC [20]: 2000 µg/mL (≈ 7080 µM)
MIC [21]: 62.5 µg/mL (≈ 221 µM)

Source: patent US9988348B1, “Synthesis and antimicrobial use of a trithiocarbonate derivative” (KING SAUD UNIVERSITY, priority 2017, dated 2018)
